Data set [1] concerns noradrenaline transporter (NAT) in SK-N-SH cells. Description: Competitive inhibition of Imaging Agent-1 uptake in SK-N-SH cells. The note with it: non-radioactive competitor 0.1-100 μM, 37° C., 60 minutes, read-out: IC50 for inhibition of Imaging Agent-1 cell uptake. In kind it is cell-based, human. On the procedure:
For the competitive inhibition assay, Imaging Agent-1 at 3.7 kBq was incubated in SK-N-SH cells with various concentrations (0.1, 1, 10, or 100 μM) of non-radioactive NA, MIBG or ^19F-Imaging Agent-1 (self) at 37° C. for 60 minutes. Similarly, following the incubation, Imaging Agent-1 cell uptake was determined. The IC50 value of each agent was determined using GraphPad software (v5).

The target in data set [2] is T1, human norepinephrine transporter (Homo sapiens, UniProt P23975).
T1 construct: expressed in transfected cells; host or cells: MDCK cells (membrane preparation)
Put plainly: Norepinephrine transporter binding assay ([3H]desipramine competition, MDCK cell membranes). The note with it: competition with [3H]desipramine 2 nM, 2 h on ice; read-out: NET Affinity. On the procedure: Individual inhibitors were dissolved in incubation buffer (50 mM Tris-HCl, 10% sucrose, pH 7.4) at appropriate dilutions. The inhibitor solutions were added to the wells of a microtiter plate (40 μL/well) in triplicate. Each well of test agent (and appropriate control wells) was treated with a mixture of MDCK cell membrane preparation (22.4 μg of membrane) expressing human norepinephrine transporter (Bmax=3.7 pmol norepinephrine transporter/mg protein), and [^3H]desipramine (2 nM, 64.8 Ci/mmol) in a total volume of 0.2 mL. The resulting mixtures were incubated for 2 h on ice.
A 96 well GF/C filter plate was presoaked with coating buffer (0.5% polyvinylpyrrolidine and 0.1% Tween 20) for 2 h at room temperature, then washed with incubation buffer (6×0.2 mL). The competition reactions were transferred to the coated plate and filtered. The filter plate was washed (6×0.2 mL) with ice cold wash buffer (50 mM Tris-HCl, 0.9% NaCl, pH 7.4) then dried overnight and treated with 25 μL scintillation fluid for analysis on a plate reader (Microbeta TriLux 1450 LSC and Luminescence counter, Perkin Elmer, Shelton Conn.).

A short description of data set [3]: Tissue distribution in rats. Type of data set: in vivo. The note with it: bolus iv injection. Here is the method:
(§1) Male Sprague Dawley rats (300-500 g, Taconic), and male New Zealand rabbits (3-4 kg, Covance) were used in accordance with our Institutional Animal Care and Use Committee. Rats were anesthetized with sodium pentobarbital (50 mg/kg, i.p.) and the left femoral vein cannulated with PESO tubing for drug injection. Rabbits were pre-sedated with acepromazine (0.75 mg/kg i.m.) then anesthetized with ketamine (40 mg/kg, i.m.) and xylazine (8 mg/kg, i.m); the marginal ear vein was cannulated for drug injection. Additional doses of anesthetics were given as needed.
(§2) After preparation, each animal received a bolus injection of the test agent via the venous catheter. Rats and rabbits were euthanized after the injection and samples of the blood, heart, lung, liver, spleen, kidney, femur and muscle were collected. All samples were weighed and counted for radioactivity (Wallac Wizard 1480, PerkinElmer Life and Analytical Sciences, Shelton, Conn.); net radioactivity administered in each animal was determined by subtracting the residual activity in both the syringe and venous catheter. Tissue uptake of each agent was determined as a percentage of the injected dose per gram tissue (% ID/g).

Data set [4] is described as follows: Tissue distribution in rabbits. Type of data set: in vivo. The note with it: bolus iv injection. Here is the method:
as §1, §2

For data set [5], the system named is PC-12 cells. Put plainly: PC-12 binding assay (cell uptake with or without desipramine). In kind it is cell-based, rat. Particulars: 0.1 μCi test agent, 60 min at 37° C.; for PC-12 (% bound) Block: with 1 μM desipramine (nonspecific uptake); for PC-12 (% bound) Control: without desipramine (total uptake). On the procedure:
Rat pheochromocytoma cell line (PC-12) were purchased from the American Type Culture Collection (ATCC) then cultured in collagen-coated flasks (BD Bio Coat Collagen Type 1, BD Biosciences) using a growth media composed of F-12 K media, 2 mM L-glutamine, 15% horse serum, 2.5% fetal bovine serum (FBS) and 1% penicillin-streptomycin.
Prepared PC-12 cells were seeded into 6-well plates at a density of 1×10^6 cells/well with 2 mL of growth media and maintained 24 h at 37° C. under a 5% CO2 atmosphere. The media was exchanged and each well treated with 0.1 μCi test agent, with or without 1 μM desipramine. The resulting mixture was incubated for 60 min at 37° C. and 5% CO2 then centrifuged at 500×g for 3 min and washed with PBS buffer. Radioactivity associated with the cells was then measured, and total uptake determined in the wells without desipramine; nonspecific uptake was measured in the associated wells containing desipramine. The specific NET mediated cell uptake is calculated as percent total uptake minus percent nonspecific uptake.

The test system of data set [6] is SK-N-SH cells with expression of NAT. Put plainly: Cell uptake comparison in SK-N-SH cells with or without desipramine. The note with it: for inhibition of cell uptake by blockade of NAT with desipramine: SK-N-SH cells, desipramine 1 μM. Type of data set: cell-based, human. On the procedure:
Imaging Agent-1 cell uptake in comparison with ^3H-NA and ^123I-MIBG was assayed in human neuroblastoma cells (SK-N-SH, ATCC) with expression of NAT (Buck et al., Cancer Res. 1985; 45(12 Pt 1):6366-70). Cells were prepared in 6-well plates at a density of 1×10^6 cells/well in 2 mL media. Imaging Agent-1, ^3H-NA or ^123I-MIBG at 3.7 kBq was added to each well with or without desipramine (1 μM), a selective NAT inhibitor. In assay with NA, pargyline (10 μM) was included to inhibit monoamine oxidase activity. Following incubation for 60 minutes at 37° C., cells were washed twice with ice-cold phosphate-buffered saline, trypsinized and centrifuged at 1000 g for 3 minutes to collect cell pellet. Radioactivity associated with the cells was measured with a γ-(Wallac Wizard 1480, PerkinElmer) or β-counter (Microbeta TriLux 1450 LSC, PerkinElmer). Each assay was performed in triplicate and the uptake was expressed as a percent of total radioactivity added to the well.

For data set [7] the following is noted: humans, 500 μg twice a day; cited from earlier work.
A short description of data set [8]: Dofetilide induced ECG changes in sham control and regional cardiac denervated rabbits. In kind it is in vivo, rabbit. Particulars: for Dofetilide induced events: PVC / Dofetilide induced events: TdP: 4 μg/kg/min iv infusion. Here is the method:
Dofetilide is an antiarrhythmic drug used clinically and known to cause QTc prolongation and possible TdP. The role of cardiac denervation in dofetilide induced changes in QTc interval, premature ventricular contraction (PVC) and TdP was assessed in sham control and RCSD rabbits at 3 weeks after surgery. Rabbits were anesthetized with ketamine (40 mg/kg, im) and xylazine (9 mg/kg, im), and dofetilide (1 and 4 μg/kg/min, Haorui Pharma-Chem Inc. Edison, N.J.) was infused for 10 minutes via a catheter in the marginal ear vein. Electrocardiogram (ECG) in lead II configuration was recorded with Ponemah system (v4.3, Data Science International) before and during the drug infusion. Heart rate (HR) and QT interval were derived from ECG waveforms. The QT interval was corrected by Fridericia method (QTcf=QT/RR^1/3).

Like-named read-outs stand apart in the source and are kept apart here. A value given as a limit tells only on which side of the number the result lay.

T1 sequence (P23975 whole entry): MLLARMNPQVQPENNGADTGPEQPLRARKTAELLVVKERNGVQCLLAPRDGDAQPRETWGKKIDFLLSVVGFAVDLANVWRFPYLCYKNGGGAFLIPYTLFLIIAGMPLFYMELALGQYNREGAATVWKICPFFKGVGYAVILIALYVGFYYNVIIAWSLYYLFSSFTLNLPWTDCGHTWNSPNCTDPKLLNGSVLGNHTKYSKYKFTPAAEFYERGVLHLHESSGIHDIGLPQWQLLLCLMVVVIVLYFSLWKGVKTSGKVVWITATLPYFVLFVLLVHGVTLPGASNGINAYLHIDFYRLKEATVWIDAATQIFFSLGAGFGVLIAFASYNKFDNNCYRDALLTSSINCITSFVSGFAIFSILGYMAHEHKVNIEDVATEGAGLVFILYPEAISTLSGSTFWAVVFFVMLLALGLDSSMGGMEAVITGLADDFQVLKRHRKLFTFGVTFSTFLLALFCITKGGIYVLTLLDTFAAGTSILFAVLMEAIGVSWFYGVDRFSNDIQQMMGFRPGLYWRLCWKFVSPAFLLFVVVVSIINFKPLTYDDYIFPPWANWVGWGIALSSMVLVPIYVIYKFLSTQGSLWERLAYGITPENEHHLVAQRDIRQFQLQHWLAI

As to `NC[C@H](O)c1ccc(O)c(O)c1` [NA, noradrenaline], the IC50 in data set [1] (Homo sapiens, 1 h) turned out to be 1090 nM.

With `N=C(N)NCc1cccc(I)c1` [MIBG, meta-iodobenzylguanidine], in data set [1], the IC50 is 210 nM.

As for `N=C(N)NCc1ccc2cc(OCCF)ccc2c1` [Example 11, 1-((6-(2-fluoroethoxy)naphthalen-2-yl)methyl)guanidine], the Ki in data set [2] turned out to be 120 nM. Further, in data set [3], the “Rat Blood” value turned out to be 0.51 ± 0.11 % ID/g, the “Rat Heart” value is given as 1.74 ± 0.27 % ID/g, the “Rat Liver” value turned out to be 0.61 ± 0.40 % ID/g and the “Rat Lung” value was found to be 2.71 ± 0.51 % ID/g. Besides, in data set [4], the “Rabbit Blood” value is recorded as 0.04 ± 0.01 % ID/g, the “Rabbit Heart” value is on record as 0.39 ± 0.02 % ID/g, the “Rabbit Liver” value was 0.02 ± 0.00 % ID/g and the “Rabbit Lung” value amounted to 0.39 ± 0.11 % ID/g. Besides, in data set [5], the “PC-12 (% bound) Block” value is listed as 2.70 % bound and the “PC-12 (% bound) Control” value is 23.90 % bound.

With `N=C(N)NCc1ccc(CF)c(Br)c1` [Example 3, 1-(3-bromo-4-(fluoromethyl)benzyl)guanidine], the Ki in data set [2] was found to be 7350 nM. Also, in data set [3], the “Rat Blood” value came out at 0.35 ± 0.15 % ID/g, the “Rat Heart” value is recorded as 0.71 ± 0.24 % ID/g, the “Rat Liver” value was found to be 0.15 ± 0.03 % ID/g and the “Rat Lung” value turned out to be 1.12 ± 0.29 % ID/g. Also, in data set [4], the “Rabbit Blood” value worked out at 0.01 % ID/g, the “Rabbit Heart” value is 0.29 % ID/g, the “Rabbit Liver” value worked out at 0.02 % ID/g and the “Rabbit Lung” value was found to be 0.39 % ID/g. Moreover, in data set [5], the “PC-12 (% bound) Block” value is given as 2.36 % bound and the “PC-12 (% bound) Control” value is 32.76 % bound.

Turning to `N=C(N)NCc1cccc([123I])c1` [^123I-MIBG, ^123I-meta-iodobenzylguanidine, reference compound], in data set [6], the “inhibition of cell uptake by blockade of NAT with desipramine” value (“inhibition of cell uptake” below) is recorded as 94±2%.

For the compound `N=C(N)NCc1ccc(OCCC[18F])c(Br)c1` [Imaging Agent-1], in data set [6] (3.7 kBq, 60 minutes at 37° C., without desipramine), the “uptake in SK-N-SH cells (percent of total radioactivity added)” value came out at 24.6±9%. Further, the “inhibition of cell uptake” value in data set [6] came to 90±3%.

As to `CN(CCOc1ccc(NS(C)(=O)=O)cc1)CCc1ccc(NS(C)(=O)=O)cc1` [dofetilide], the bioavailability in data set [7] was more than 90%. Moreover, in data set [8] (Denervated rabbits (n = 8)), the “Dofetilide induced events: PVC” value is listed as 5 (63%) and the “Dofetilide induced events: TdP” value is given as 2 (25%). In addition, in data set [8] (Sham rabbits (n = 6)), the “Dofetilide induced events: PVC” value is reported as 3 (50%) and the “Dofetilide induced events: TdP” value is on record as 1 (17%). In addition, the “ECG changes on intravenous administration” value in data set [8] (sham control and RCSD rabbits, 1 and 4 μg/kg/min for 10 minutes) is “induced bradycardia and QT prolongation”.

Consider “^3H-noradrenaline [^3H-NA, reference compound]”, for which the “inhibition of cell uptake” value in data set [6] amounted to 97±2%.

In the case of `N=C(N)NCc1ccc(COCCF)c(Br)c1` [Example 4, 1-(3-bromo-4-((2-fluoroethoxy)methyl)benzyl)guanidine], in data set [2], the Ki turned out to be 5410 nM. Also, in data set [3], the “Rat Blood” value is reported as 0.13 ± 0.02 % ID/g, the “Rat Heart” value was 1.04 ± 0.95 % ID/g, the “Rat Liver” value was 0.37 ± 0.24 % ID/g and the “Rat Lung” value is on record as 0.34 ± 0.18 % ID/g. Also, in data set [4], the “Rabbit Blood” value came out at 0.014 % ID/g, the “Rabbit Heart” value was found to be 0.025 % ID/g, the “Rabbit Liver” value was determined as 0.012 % ID/g and the “Rabbit Lung” value is given as 0.031 % ID/g. Moreover, in data set [5], the “PC-12 (% bound) Block” value is reported as 0.50 % bound and the “PC-12 (% bound) Control” value came to 1.00 % bound.

The record behind these values is patent publication US9550000B2, “Compositions, methods, and systems for the synthesis and use of imaging agents” (Lantheus Medical Imaging, Inc., priority 2011, dated 2017).
